“Also recorded” adds a separate entry of the source.
How the values were obtained:
[1] = molecular target: T1, human CB2R (Homo sapiens, UniProt P34972); test: PathHunter β-Arrestin assay, beta-arrestin recruitment; type: cell-based; settings: for Activation of beta-arrestin pathway (in words): hCB2, CP-55940 as control
Procedure: The assay was performed using the PathHunter β-Arrestin human CB2 cell line (catalog no. 93-0706C2) and using the PathHunter® β-Arrestin Assay for GPCR Cell Lines (source: DiscoveRx, Fremont, CA, USA), according to the manufacturer's protocol (https://www.discoverx.com/tools-resources/document-resource-library/documents/user-manual-pathhunter-% CE % B2-arrestin-assay-for-gpcr-c). Briefly, cells were seeded at a density of 10,000 cells per well in a 96-well plate and incubated overnight (16-18 h) in a humidified atmosphere at 37° C. and 5% C02. Agonist prepared in PBS was added and the assay plate incubated for 3 h in a humidified atmosphere at 37° C. and 5% C02. Working detection solution was added and the plate was incubated for 1 h in the dark at room temperature. Chemiluminescence was measured on an CLARIOstar plate reader (BMG LABTECH Inc., Cary, NC, USA).

[2] = molecular target: T1, human CB2R; test: cAMP Hunter eXpress GPCR assay, human CB2: inhibition of forskolin-stimulated cAMP in CHO cells; type: cell-based; design: host or cells: CHO cells
Procedure: Briefly, cAMP Hunter eXpress Cells were seeded 18-24 h prior to the in a 96-well tissue culture treated assay plate and incubated in 5% CO2 at 37° C. in a humidified incubator. After removal of cell media, agonist compound and forskolin prepared in cell assay buffer was added and incubated at 37° C. The CB1 cAMP assay was stimulated with 20 μM final concentration of forskolin with 40 minutes incubation time. The CB2 cAMP assay was stimulated with 25 μM final concentration of forskolin with 35 minutes incubation time. The assay was stopped by incubation with antibody and working solution for 1 h at room temperature. After over 3 h incubation at room temperature in the dark with enzyme acceptor solution, chemiluminescence was measured on a CLARIOstar plate reader (BMG LABTECH Inc., Cary, NC, USA).

[3] = test system: Male C57Bl6J mice; test: Spontaneous locomotor activity in activity chamber; type: in vivo, mouse; settings: mouse, in vivo, ip
[4] = test system: Male C57BL/6J mice brain tissue; test: Brain cytokine gene expression (TaqMan qPCR); type: in vivo, mouse; settings: 0.1 and 0.3 mg/kg or 1, 2, and 3 mg/kg
Procedure: Male C57BL/6J mice, 6-8 weeks old were dosed on Day 1,2,3,4,5, and 10, or 11 with vehicle or CBS-159 at 0.1 and 0.3 mg/kg or 1, 2, and 3 mg/kg. Mice were terminated on Day 10 or 11, 3.5 hours after dosing vehicle or CBS-159. Total RNA was isolated from brain tissue dissections using the RNeasy Lipid Tissue Mini Kit (Qiagen) (see Evans et al. Neurobiol. Dis. 2020, 146:105089). One microgram of total RNA was transcribed into cDNA (Superscript III, Invitrogen). PCR was performed in triplicate using TaqMan gene expression master mix (Applied Bio-systems) and validated TaqMan gene expression assays, Tnfa (Mm00443258_m1), IL1β (Mm00434228_m1), IL6 (Mm00446190_m1),), IL18 (Mm00434226_m1), and glyceraldehyde-3-phosphate dehydrogenase (Gapdh; Mm99999915_g1). Amplification was performed using a StepOnePlus system (Applied Biosystems). Fold changes of expression relative to control were determined after normalization to Gapdh. Relative quantification and old change were calculated by the comparative CT method (Schmittgen and Livak, Nat. Protoc. 2008, 3(6):1101-1108).

[5] = test system: mice dosed with LPS and ATP; test: LPS model of systemic inflammation, Luminex cytokines in plasma and brain homogenate; type: in vivo, mouse; settings: 0.5 mg/kg ip daily for 10 days, LPS 100 ug/kg ip, ATP 50 mg/kg ip
Procedure: Mice were dosed with Compound 24 (0.5 mg/kg ip) or vehicle daily for 10 days. Lipopolysaccharide (LPS) (100 ug/kg ip) was given 1 hour after 10th dose on final day. ATP (50 mg/kg ip) was given 2 hours after LPS and then mice were sacrificed 30 minutes after ATP (2.5 hours after LPS). Multiplex tissue cytokines were analyzed in plasma and brain homogenate from all brain regions dissected above using a Luminex 38-plex mouse cytokine assay as previously described for aged versus young mice (Evans et al. Neurobiol Aging 2021; 106:241-56). The Luminex assay was performed according to the manufacturer's instructions. Briefly, tissue samples were homogenized in RIPA buffer containing proteinase inhibitor by pulling tissue through a 23 g needle (15×) and then sonicating for 3×3 second pulses. Homogenate was spun at 14,000 g for 10 minutes, and protein concentrations were determined by the Pierce BCA assay. Samples were diluted to a common concentration of 6 μg/μL. Plasma samples were diluted 1:3. Plasma and brain homogenate samples were run in duplicate on a 96 well plate alongside standard curve and quality control calibration samples.

[6] = test system: heroin-addicted mice; test: Naloxone-precipitated withdrawal model; type: in vivo, mouse; settings: 3 mg/kg i.p., jumping 1 minute after naloxone 50 mg/kg
Procedure: The naloxone-precipitated withdrawal model uses an opioid receptor antagonist, naloxone, to trigger highly aversive withdrawal symptoms (e.g., jumping, burrowing, “wet-dog” shakes, hyperreactivity) in heroin-addicted mice. Signs such as jumping can be quantified after administration of naloxone (“naloxone precipitated withdrawal”). […] On Day 7, 60 minutes after a final drug and heroin dose (40 mg/kg), naloxone was administered (50 mg/kg), and jump count measured for 1-15 minutes.

[7] = test system: Heroin SA-trained rats; test: Heroin self-administration model; type: in vivo, rat; settings: treated daily during 21 days of abstinence, 3 mg/kg i.p., vs vehicle
Procedure: In the heroin SA model, rats were surgically implanted with a catheter that connects to their heart. […] They learned to press an active lever to get an infusion of heroin through their implanted tube. […] Heroin SA-trained rats underwent 21 days of abstinence after training. […] Heroin-seeking behaviors were assessed before and after the abstinence period.

[8] = cAMP assay, CP-55940 as full agonist control

T1 sequence (P34972 whole entry): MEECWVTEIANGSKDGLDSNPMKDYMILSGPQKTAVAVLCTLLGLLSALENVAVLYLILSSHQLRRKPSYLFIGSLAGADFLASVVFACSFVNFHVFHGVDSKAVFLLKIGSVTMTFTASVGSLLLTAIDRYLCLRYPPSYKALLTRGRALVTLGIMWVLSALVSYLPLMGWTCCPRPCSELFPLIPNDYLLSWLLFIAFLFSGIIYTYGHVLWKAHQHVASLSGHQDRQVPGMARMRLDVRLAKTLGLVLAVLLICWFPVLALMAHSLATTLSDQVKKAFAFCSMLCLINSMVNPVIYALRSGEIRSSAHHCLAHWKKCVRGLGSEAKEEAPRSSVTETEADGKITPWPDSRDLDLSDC

With `CC(C)(C)c1cc(NC(=O)N2CCCN2c2cc(F)cc(F)c2)on1` [Compound 19, N-(3-(tert-butyl)isoxazol-5-yl)-2-(3,5-difluorophenyl)pyrazolidine-1-carboxamide] the melting point was 181 to 185 °C.

For `CC(C)(C)c1cc(NC(=O)N2CCCN2c2ccc(F)cc2)on1` [Compound 21, N-(3-(tert-butyl)isoxazol-5-yl)-2-(4-fluorophenyl)pyrazolidine-1-carboxamide], the melting point was 190 to 194 °C.

`CC(C)(C)c1cc(NC(=O)N2CCCC2c2ccc(C(F)(F)F)cc2)no1` (stereo not drawn) [Compound 26, N-(5-(tert-butyl)isoxazol-3-yl)-2-(4-(trifluoromethyl)phenyl)pyrrolidine-1-carboxamide] showed a melting point of 175 to 179 °C.

In the case of `CC(C)(C)c1cc(NC(=O)N2CCCN2c2ccc(C(F)(F)F)cc2)on1` [Compound 11, N-(3-(tert-butyl)isoxazol-5-yl)-2-(4-(trifluoromethyl)phenyl)pyrazolidine-1-carboxamide], the EC50 [1] is reported as > 1000 nM, the “Activation of beta-arrestin pathway (in words)” value (“Activation” for short) [1] is reported as “weakly/partially activates the beta-arrestin pathway” and the Emax ([1]; read-out: B-arrestin Maximum Activation) is reported as 35.5%. It also gave a melting point of 211 to 215 °C, an Emax ([2]; CHO, read-out: CB2 Maximum Activation) of 114% and an EC50 ([2]; Table 3; cAMP assay, 25 μM forskolin, 35 minutes; read-out: CB2 EC50) of 75.2 nM. The “CB2 agonist character (in words)” value [2, 8] was “full agonist” and the “Selectivity for CB2 over CB1 (in words)” value ([2]; cAMP assays hCB1 vs hCB2) was “selective for CB2 over CB1”.

With `Cc1cc2c(nc(-c3ccccc3Cl)n2C2CCOCC2)c(N2CCN(C)CC2)n1` [Compound 2, 2-(2-chlorophenyl)-6-methyl-4-(4-methylpiperazin-1-yl)-1-(tetrahydro-2H-pyran-4-yl)-1H-imidazo[4,5-c]pyridine] the melting point was 248 to 252 °C.

For `CC(C)(C)c1cc(NC(=O)N2CCCN2)on1` [Compound 31, N-(3-(tert-butyl)isoxazol-5-yl)pyrazolidine-1-carboxamide], the melting point was 175 to 179 °C.

With `O=C(Nc1cc(C2CC2)no1)N1CCCN1c1ccc(C(F)(F)F)cc1` [Compound 16, N-(3-cyclopropylisoxazol-5-yl)-2-(4-(trifluoromethyl)phenyl)pyrazolidine-1-carboxamide] the “Activation” value [1] was “almost no beta-arrestin activity”, the “CB2 agonist character (in words)” value [2, 8] was “partial agonist of CB2” and the “Selectivity for CB2 over CB1 (in words)” value ([2]; cAMP assays hCB1 vs hCB2) was “selective for CB2 over CB1”.

For `CC(C)(CO)c1cc(NC(=O)N2CCCN2c2ccc(C(F)(F)F)cn2)on1` [Compound 24, N-(3-(1-hydroxy-2-methylpropan-2-yl)isoxazol-5-yl)-2-(5-(trifluoromethyl)pyridin-2-yl)pyrazolidine-1-carboxamide], the “Activation” value [1] was “weak beta-arrestin activity”, the “Distance moved / spontaneous locomotor activity” value [3] was “does not affect spontaneous locomotor activity in mice” and the “Anti-inflammatory function in the brain” value [4] was “displays anti-inflammatory function in the brain”. For the same compound, the “Anti-inflammatory function in LPS model of systemic inflammation” value [5] was “has anti-inflammatory activity; also recorded: displays anti-inflammatory function in a LPS model of systemic inflammation”, the “CB2 agonist character (in words)” value [2, 8] was “potent agonists of CB2” and the “Selectivity for CB2 over CB1 (in words)” value ([2]; cAMP assays hCB1 vs hCB2) was “selective for CB2 over CB1”.

For `CC(C)(C)c1cc(NC(=O)N2CCCN2c2ccc(C(F)(F)F)cn2)on1` [Compound 3, N-(3-(tert-butyl)isoxazol-5-yl)-2-(5-(trifluoromethyl)pyridin-2-yl)pyrazolidine-1-carboxamide], the melting point was 184 to 188 °C.

Work on `CC(C)(C)c1cc(NC(=O)N2CCC(=O)N2c2ccc(C(F)(F)F)cc2)on1` [Compound 29, N-(3-(tert-butyl)isoxazol-5-yl)-3-oxo-2-(4-(trifluoromethyl)phenyl)pyrazolidine-1-carboxamide] yielded a melting point of 186 to 190 °C.

`CN1CCN(c2nccc3c2nc(-c2ccccc2Cl)n3C2CCOCC2)CC1` [Compound 1, 2-(2-chlorophenyl)-4-(4-methylpiperazin-1-yl)-1-(tetrahydro-2H-pyran-4-yl)-1H-imidazo[4,5-c]pyridine] showed a melting point of 231 to 235 °C.

With `Cc1nc(N2CCN(C)CC2)c2nc(-c3ccccc3Cl)n(C3CCOCC3)c2n1` [LY2828360, reference compound] the “Activation” value [1] was “weakly/partially activates the beta-arrestin pathway”, the Emax ([1]; read-out: CB2 Maximum Activation) was 51.7% and the “Negative effects of heroin withdrawal (jumping behavior after naloxone)” value [6] was “reduce the negative effects of heroin withdrawal”. For the same compound, the Emax ([2]; CHO; read-out: CB2 Maximum Activation) was 52.6% and the Abstinence-induced heroin seeking [7] was “less abstinence-induced heroin seeking than the vehicle-treated rats”.

Source: US20240158384A1, “CB2 RECEPTOR AGONISTS” (The Board of Trustees of the Leland Stanford Junior …, priority 2020, published 2024)
